This test deals with T1, NR1-1a/NR2B NMDA receptor (Rattus norvegicus, UniProt P35439+Q00960).
T1 construct: expressed in transfected cells; host or cells: HEK293 cells (ATCC CRL1573)
In words: Patch-clamp inhibition of glutamate-evoked currents at recombinant NMDA receptors in transfected HEK293 cells. Format: cell-based. The method, then: Transfected cells were identified by means of fluorescent green protein (GFP) fluorescence. Its genus was transfected together with the both receptor subunit genes.
Steroid-containing solutions were prepared from fresh solution (20 mmol·l^−1, of steroid dissolved in dimethyl sulfoxide, DMSO), which was added to the extracellular solution containing 1 mmol·l^−1 glutamic acid and 10 μmol·l^−1 of glycine. Identical concentrations of DMSO were added to all other extracellular solutions.
Current responses produced by extracellular application of glutamic acid solution (1 mmol·l^−1) were measured from the whole cell by patch-clamp technique, which is used for the study of transport of charged particles through model and also natural biological membranes. The currents were measured at membrane potential maintained at −60 mV and +60 mV.
Same amounts (0.3 μg) of cDNA coding NR1, NR2 and GFP (green fluorescent protein) (pQBI 25, Takara, Japan) were mixed with 0.9 μl of Matra-A Reagent (IBA, Göttingen, Germany) and added to confluent HEK293 cells cultivated in v 24-pit cultivating plate. After trypsination, the cells were re-suspended in Opti-MEM® I containing 1% fetal bovine serum. Subsequently, 20 mmol·l^−1 MgCl2, 1 mmol l^−1 D,L-2-amino-5-phosphonopentanoic acid, 3 mmol·l^−1 kynurenic acid was added to the mixture and cells were inoculated on the polylysine-coated glass plates having 25 mm in diameter. The following genes coding NMDA receptor subunits were used for transfection: NR1-1 a (GenBank accession No. U08261) and NR2B (GenBank accession No. M91562).
HEK293 Cultured cells were used for electrophysiological investigations with a latency of 16-40 h after transfection. Whole-cell currents were measured by patch-clamp amplifier (Axopatch 1D; Axon Instruments, Inc. Foster City, USA) after capacitance and serial resistance (<10 MΩ) compensation to 80-90%. Agonist-induced responses were filtered to 1 kHz (8-pole Bessel filter; Frequency Devices, Haverhill, USA), digitized with sampling frequency of 5 kHz and analyzed by pClamp version 9 software (Axon Instruments, USA). […] Extracellular solution (ECS) contained 160 mmol·l^−1 sodium chloride, 2.5 mmol·l^−1 potassium chloride, 10 mmol·l^−1 HEPES, 10 mmol·l^−1 glucose, 0.2 mmol·l^−1 EDTA a 0.7 mmol·l^−1 calcium chloride (pH adjusted to 7.3 by sodium hydroxide solution). Glycine was added to both testing and control solution. Moreover, bicuculline (10 μmol·l^−1) and tetrodotoxin (0.5 μmol·l^−1) was added to hippocampal cultures. Steroid-containing solutions were prepared from fresh solution (20 mmol·l^−1) of steroid dissolved in dimethyl sulfoxide (DMSO). Same concentrations of DMSO were used in all extracellular solutions. Control and experimental solutions were applied via microprocessor-controlled perfusion system with approx. rate of solution exchange in areas adjacent to cells reaching ˜10 ms.
Current responses produced by 100 μmol·l^−1 of NMDA (in the case of hipocampal neurones), or by 1 mmol·l^−1 of glutamate (on recombinant NMDA receptors) were measured at membrane potential maintained at −60 mV. […] Relative effect of steroid-induced inhibition was used for calculating IC50.
(In general: Patch clamp records ionic current or voltage across a cell membrane.)

Where [1] appears, read: calculated from relative steroid-induced inhibition, Hill's coefficient 1.2, read-out: IC50.
Setting [2] is: steroid concentration 3 μmol·l^−1, 1 mmol·l^−1 glutamate, −60 mV.
[3] abbreviates: HEK293, read-out: Mean % change ± SD.
Setting [4] is: HEK293, steroid concentration 50 μmol·l^−1, 1 mmol·l^−1 glutamate, −60 mV, read-out: Mean % change ± SD.

We go through 20 molecules from US10017535B2, “Amphiphilic compounds with neuroprotective properties” (USTAV ORGANICKE CHEMIE A BIOCHEMIE AV CR, v.v.i., priority 2014, dated 2018).

As usually defined, the IC50 is the point on the concentration scale where inhibition reaches its midpoint.

Read-outs that look alike come from different tables or passages of the source.

T1 sequence (Q00960 27-1482, other chains not shown): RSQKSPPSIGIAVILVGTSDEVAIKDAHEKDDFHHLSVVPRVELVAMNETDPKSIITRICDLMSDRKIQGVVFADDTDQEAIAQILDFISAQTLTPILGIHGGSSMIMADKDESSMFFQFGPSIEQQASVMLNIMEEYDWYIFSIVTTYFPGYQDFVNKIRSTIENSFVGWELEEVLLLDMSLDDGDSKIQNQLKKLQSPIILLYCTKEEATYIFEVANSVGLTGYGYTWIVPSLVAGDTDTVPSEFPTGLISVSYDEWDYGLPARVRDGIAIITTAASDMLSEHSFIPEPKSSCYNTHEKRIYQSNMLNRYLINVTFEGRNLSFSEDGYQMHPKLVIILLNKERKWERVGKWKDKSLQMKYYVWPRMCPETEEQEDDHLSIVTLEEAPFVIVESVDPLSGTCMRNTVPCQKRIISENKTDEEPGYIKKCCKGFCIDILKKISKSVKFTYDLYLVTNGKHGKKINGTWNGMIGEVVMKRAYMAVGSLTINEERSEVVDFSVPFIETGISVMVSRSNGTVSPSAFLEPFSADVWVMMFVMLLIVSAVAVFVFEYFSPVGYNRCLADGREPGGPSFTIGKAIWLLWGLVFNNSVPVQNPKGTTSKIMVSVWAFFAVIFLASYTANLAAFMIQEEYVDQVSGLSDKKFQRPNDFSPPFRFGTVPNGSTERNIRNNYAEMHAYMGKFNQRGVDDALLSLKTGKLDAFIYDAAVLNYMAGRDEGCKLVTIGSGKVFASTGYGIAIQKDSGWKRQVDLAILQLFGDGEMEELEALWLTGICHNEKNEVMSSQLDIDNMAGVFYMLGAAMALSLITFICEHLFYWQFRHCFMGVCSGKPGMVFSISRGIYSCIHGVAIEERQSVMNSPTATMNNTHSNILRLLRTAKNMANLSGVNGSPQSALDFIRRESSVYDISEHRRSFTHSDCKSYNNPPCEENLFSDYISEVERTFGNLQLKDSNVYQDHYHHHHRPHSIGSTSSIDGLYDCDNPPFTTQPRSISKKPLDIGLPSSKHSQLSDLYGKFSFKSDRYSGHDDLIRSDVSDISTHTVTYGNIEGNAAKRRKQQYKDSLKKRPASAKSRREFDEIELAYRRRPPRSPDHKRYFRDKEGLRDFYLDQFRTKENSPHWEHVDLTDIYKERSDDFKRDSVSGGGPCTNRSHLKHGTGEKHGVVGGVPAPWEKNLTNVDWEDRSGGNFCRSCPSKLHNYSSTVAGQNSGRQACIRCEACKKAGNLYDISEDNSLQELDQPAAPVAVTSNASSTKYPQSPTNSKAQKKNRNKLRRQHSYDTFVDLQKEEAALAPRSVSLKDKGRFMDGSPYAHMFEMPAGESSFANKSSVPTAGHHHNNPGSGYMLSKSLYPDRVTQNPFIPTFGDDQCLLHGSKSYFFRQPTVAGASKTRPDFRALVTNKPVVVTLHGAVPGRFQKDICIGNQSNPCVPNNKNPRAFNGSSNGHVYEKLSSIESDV

For “Pyridinium (3R,5R,8S,9S,10S,13R,14S,17S)-10,13,17-trimethylhexadecahydro-1H-cyclopenta[a]phenanthren-3-yl 3-sulfate [Compound 117]”, the IC50 under setting [1] was 1.1 µM. For the same molecule, under setting [2], the “Mean % change ± SD” value is reported as 73.1 ± 6.7%.
For `C[C@]12CC[C@@H](OS(=O)(=O)O)C[C@H]1CC[C@@H]1[C@@H]2CC[C@@]2(C)[C@H]1CC[C@@]21CO1` [Compound 97, Pyridinium (3R,5R,8R,9S,10S,13S,14S,17S)-10,13-dimethylhexadecahydrospiro-[cyclopenta[a]phenanthren-17,2′-oxiran]-3-yl 3-sulfate], the inhibition at 100 µM under setting [3] amounted to 78 ± 8.9%. The IC50 under setting [1] was 45 µM.
For the molecule `C=C1CC[C@H]2[C@@H]3CC[C@@H]4C[C@H](OC(=O)C[N+](C)(C)C)CC[C@]4(C)[C@H]3CC[C@]12C` [Compound 76, 2-(((3R,5R,8R,9S,10S,13S,14S)-10,13-Dimethyl-17-methylenehexadecahydro-1H-cyclopenta[a]phenanthren-3-yl)oxy)-N,N,N-trimethyl-2-oxoethan-1-ammonium chloride], under setting [3], the inhibition at 50 µM came out at 50 ± 10%. Besides, under setting [1], the IC50 was 51.7 µM.
On to `C/C=C1/CC[C@H]2[C@@H]3CC[C@@H]4C[C@H](NC(=O)CC(=O)O)CC[C@]4(C)[C@H]3CC[C@]12C` [Compound 155, 3-(((3R,5R,8R,9S,10S,13S,14S,Z)-17-Ethylidene-10,13-dimethylhexadecahydro-1H-cyclopenta[a]phenanthren-3-yl)amino)-3-oxopropanoic acid], for which the IC50 was determined as 8.7 µM. For the same molecule, under setting [3], the inhibition at 10 µM was 54.4 ± 5%.
In the case of “Pyridinium (3R,5R,8S,9S,10S,13S,14R,17R)-10,17-dimethylhexadecahydro-1H-cyclopenta[a]phenanthren-3-yl 3-sulfate [Compound 118]”, under setting [1], the IC50 is 1.5 µM. Besides, the “Mean % change ± SD” value under setting [2] came to 68.0 ± 7.8%.
Regarding `C[C@@]12CCC[C@H]1[C@@H]1CC[C@@H]3C[C@H](OC(=O)CCC[N+](C)(C)C)CC[C@]3(C)[C@H]1CC2` [Compound 62, 4-(((3R,5R,8S,9S,10S,13S,14S)-10,13-Dimethylhexadecahydro-1H-cyclopenta[a]-phenanthren-3-yl)oxy)-N,N,N-trimethyl-4-oxobutan-1-ammonium chloride], under setting [3], the inhibition at 1 µM is 34 ± 5%. Besides, under setting [1], the IC50 was 1.7 µM.
Take `C[C@@]12CCC[C@H]1[C@@H]1CC[C@@H]3C[C@H](OC(=O)C(=O)O)CC[C@]3(C)[C@H]1CC2` [Compound 50, 2-(((3R,5R,8S,9S,10S,13S,14S)-10,13-Dimethylhexadecahydro-1H-cyclopenta[a]phenanthren-3-yl)oxy)-2-oxoethanoic acid]: the inhibition at 10 µM under setting [3] turned out to be 64 ± 7%. Besides, the IC50 under setting [1] was 6.3 µM.
Turning to “Pyridinium (3R,5R,8R,9R,10S,13S,14S)-13-methylhexadecahydro-1H-cyclopenta[a]phenanthren-3-yl 3-sulfate [Compound 126]”, under setting [1], the IC50 is 5.4 µM. The “Mean % change ± SD” value (steroid concentration 10 μmol·l^−1, 1 mmol·l^−1 glutamate, −60 mV) is listed as 68.3 ± 7.4%.
Turning to `C[C@@]12CCC[C@H]1[C@@H]1CC[C@@H]3C[C@H](N4CC(C(=O)O)CC4=O)CC[C@]3(C)[C@H]1CC2` (stereo partly drawn) [Compound 131, 1-((3R,5R,8S,9S,10S,13S,14S)-10,13-Dimethylhexadecahydro-1H-cyclopenta[a]phenanthren-3-yl)-5-oxopyrrolidine-3-carboxylic acid], the inhibition at 10 µM under setting [3] was determined as 34.7 ± 7.2%. In addition, under setting [1], the IC50 is 17.7 µM.
For the molecule `C[C@@]12CCC[C@H]1[C@@H]1CC[C@@H]3C[C@H](OC(=O)CC(=O)O)CC[C@]3(C)[C@H]1CC2` [Compound 51], the inhibition at 10 µM under setting [3] was found to be 42 ± 14%. Also, the IC50 under setting [1] is 15.5 µM.
Turning to “Pyridinium (3R,5R,8R,9S,10S,13S,14S)-10,13-dimethyl-17-methylenehexadecahydro-1H-cyclopenta[a]phenanthren-3-yl 3-sulfate [Compound 116]”, under setting [1], the IC50 was 1.4 µM. For the same molecule, the “Mean % change ± SD” value under setting [2] amounted to 68.3 ± 4.3%.
In the case of `C=C1C[C@H]2[C@@H]3CC[C@@H]4C[C@H](OS(=O)(=O)O)CC[C@]4(C)[C@H]3CC[C@]2(C)C1` [Compound 114, Pyridinium (3R,5R,8S,9S,10S,13R,14S)-10,13-dimethyl-16-methylenhexadekhydro-1H-cyclopenta[a]phenanthren-3-yl 3-sulfate], the inhibition at 3 µM under setting [3] is 59.1 ± 3.8%. The IC50 under setting [1] was 2.1 µM.
As for `COC[C@@]1(C)CC[C@H]2[C@@H](CC[C@@H]3C[C@H](OS(=O)(=O)O)CC[C@@]32C)[C@@H]1C` [Compound 18, Pyridinium (2R,4aS,4bS,7S,8S,8aS,10aR)-7-(methoxymethyl)-4a,7,8-trimethyltetra-decahydrophenanthren-2-yl 2-sulfate], the inhibition at 50 µM under setting [4] stood at 60.5 ± 4.6%. Besides, the IC50 under setting [1] is 33 µM.
`COC(=O)[C@@]1(C)CC[C@H]2[C@@H](CC[C@@H]3C[C@H](OS(=O)(=O)O)CC[C@@]32C)C1` [Compound 40, Methyl (2S,4aS,4bS,7R,8aR,10aS)-2,4b-dimethyl-7-(sulfooxy)tetradecahydrophenanthren-2-carboxylate]: the inhibition at 50 µM under setting [4] came to 14.4 ± 1.8%. The IC50 under setting [1] was 224 µM.
With “Pyridinium (3R,5R,8R,9S,10S,13S,14S,17R)-10,13-dimethyl-17-(prop-1-en-2-yl)hexadecahydro-1H-cyclopenta[a]phenanthren-3-yl 3-sulfate [Compound 121]”, under setting [1], the IC50 is 0.4 µM. The “Mean % change ± SD” value (steroid concentration 1 μmol·l^−1, 1 mmol·l^−1 glutamate, −60 mV) stood at 71.7 ± 8.0%.
Turning to `C/C=C1/CC[C@H]2[C@@H]3CC[C@@H]4C[C@H](OC(=O)CCCC(=O)O)CC[C@]4(C)[C@H]3CC[C@]12C` [Compound 85, 5-(((3R,5R,8R,9S,10S,13S,14S,Z)-17-Ethylidene-10,13-dimethylhexadecahydro-1H-cyclopenta[a]phenanthren-3-yl)oxy)-5-oxopentanoic acid], the inhibition at 50 µM under setting [3] amounted to 59.4 ± 7.8%. The IC50 under setting [1] was 38.4 µM.
`COC(=O)C1(C)CCC2C(CCC3CC(OS(=O)(=O)O)CCC32C)C1C` [Compound 22, Pyridinium (2R,4aS,7S,8S,10aR)-7-(methoxycarbonyl)-4a,7,8-trimethyltetra-decahydrophenanthren-2-yl 2-sulfate]: the inhibition at 100 µM (HEK293, steroid concentration 100 μmol·l^−1, 1 mmol·l^−1 glutamate, −60 mV, read-out: Mean % change ± SD) amounted to 40.9 ± 6.1%. Besides, under setting [1], the IC50 is 74.6 µM.
In the case of `C[C@@H]1CC[C@H]2[C@@H](CC[C@@H]3C[C@H](OS(=O)(=O)O)CC[C@@]32C)C1` [Compound 35, Pyridinium (2R,4aS,4bS,7R,8aS,10aR)-4a,7-dimethyltetradecahydrophenanthren-2-yl 2-sulfate], under setting [4], the inhibition at 50 µM came to 85 ± 1.2%. Under setting [1], the IC50 was 12 µM.
On to `C[C@]12CC[C@@H](OC(=O)CCC(=O)O)C[C@H]1CC[C@@H]1[C@@H]2CC[C@]2(C)C=CC[C@@H]12` [Compound 64, 4-(((3R,5R,8R,9S,10S,13R,14S)-10,13-Dimethyl-2,3,4,5,6,7,8,9,10,11,12,13,14,15-tetra-decahydro-1H-cyclopenta[a]phenanthren-3-yl)oxy)-4-oxobutanoic acid], for which the inhibition at 10 µM under setting [3] came out at 45.9 ± 11.7%. Moreover, the IC50 under setting [1] was 12.9 µM.
On to “Pyridinium (2S,4aR,4bR,8aS,10aS)-4a-methyltetradecahydrophenanthren-2-yl 2-sulfate [Compound 128]”, for which the IC50 under setting [1] was 36.3 µM. Besides, the “Mean % change ± SD” value (steroid concentration 50 μmol·l^−1, 1 mmol·l^−1 glutamate, −60 mV) was 58.0 ± 2.0%.
